Assay results taken from PMC7293270 (Scientific Reports, 2020).

Tests used:
[1] = system: portal vein tumor thrombosis; experiment: Retrospective review: PVTT recanalization in HCC patients treated with sorafenib plus conventional RT or SBRT; assay type: in vivo, human
Description: The need for informed consent was waived by the Institutional Review Board of the Far Eastern Memorial Hospital (FEMH-IRB-108025-E) and retrospective data were collected after receiving approval from the Institutional Review Board of the Far Eastern Memorial Hospital (FEMH-IRB-108025-E). All research was performed in accordance with relevant guidelines and regulations. All tumors were staged according to the American Joint Committee on Cancer (AJCC) Cancer Staging Manual, 7th edition. A total of 90 HCC patients with PVTT were identified. […] The patients who were treated with a radiation fraction size of <5 Gy and those treated with ≥5 Gy were grouped as the conventional and the SBRT group, respectively.

[2] = Plasma pharmacokinetics of sorafenib with RT, with or without CsA pretreatment, in freely moving rats; assay type: in vivo, Sprague-Dawley rats; details: for Cmax / Tmax / AUC(0-t): Sprague-Dawley, rat, plasma, 40 mg/kg
Description: A freely moving rat model was designed for the current study[21] (Fig. 1A). Experimental rats were anesthetized with 1 g/mL urethane and 0.1 g/mL α-chloralose (1 mL/kg by intraperitoneal [i.p.] injection), and polyethylene tubes were then implanted in the right jugular vein for intravenous (i.v.) fluid administration. The right jugular vein was catheterized for blood sampling. The catheter traversed the subcutaneous tissue and was fixed in the dorsal neck region. After surgery, the rats were placed in an experimental cage and allowed to recover for 1 day. During the recovery period, the rats were kept warm under a light. Then, the rats were anesthetized and immobilized on a board while undergoing CT for localization of the whole liver (conventional technique, Fig. 1B) or a central area of 1.5 × 1.5 cm (SBRT technique, Fig. 1C).
The rats were randomly divided into five groups of six rats per group.
The rats were pretreated with CsA (20 mg/kg, i.p.). […] Blood samples were obtained according to a preset schedule.
Blood samples (150 µL) were withdrawn from the jugular vein with a fraction collector at 15, 30, 45, and 60 min and at 1.5, 2, 2.5, 3, 3.5 and 4 hr after drug administration. The blood samples were immediately centrifuged at 4200 × g for 10 min. The resulting plasma (50 µL) was added to 1 mL of ethyl acetate in a clean tube, vortexed for 5 min, and centrifuged at 5900 × g for 10 min. After centrifugation, the upper organic layer containing ethyl acetate was transferred to a new tube and evaporated to dryness under a nitrogen flow.
Chromatographic analysis was performed on a Model LC-20DAD HPLC system (Shimadzu, Tokyo, Japan) equipped with a Model SPD-M20A wavelength UV detector, a SIL-20AC autosampler, and an LC Solution data processing system. A […] C[18] column (50 × 2.1 mm, particle size 1.7 μm, Eclipse XDB; Agilent, Palo Alto, CA, USA) was used for HPLC separation. The mobile phase consisted of potassium dihydrogen phosphate (10 mM, pH = 3) and acetonitrile (55:45, v/v). The flow rate was set at 0.2 mL/min, and the injection volume was 5 μL. […] A peak controlled spectrum recording was selected with a range of 190–300 nm.
Pharmacokinetic parameters, including the area under the concentration vs. time curve (AUC), terminal elimination phase t1/2, Cmax, MRT, total plasma clearance and Vss, were calculated using the PK calculation software WinNonlin Standard Edition, version 1.1 (Scientific Consulting, Apex, NC, USA) using a compartmental method.

[3] = Organ distribution of sorafenib in rats; assay type: in vivo, Sprague-Dawley rats; details: for concentration at 6 h: Sprague-Dawley, rat, po, 40 mg/kg
Description: The brain, liver, heart, spleen, lung and kidney were collected and weighed. These collected samples were stored at −20 °C until analysis.
Thawed organ samples were homogenized in 50% aqueous acetonitrile (sample weight:volume ratio, 1:5), and the homogenate was then centrifuged at 13000 × g for 10 min at 4 °C. The supernatant was collected, placed in brown Eppendorf tubes, and stored at −20 °C until analysis. In brief, each organ sample (50 μL) was combined with 150 μL of IS solution (diethylstilbestrol) for protein precipitation. Finally, 20 μL of filtrate was injected into the HPLC system for analysis.

[4] = cited from earlier work
[5] = design: method as in earlier work; details: cited from earlier work
HCC = details: cited from earlier work
efflux transporter P-gp = details: cited from earlier work
[6] = sorafenib + SBRT (fraction size ≥ 5 Gy), n = 18
[7] = sorafenib + conventional RT (fraction size <5 Gy), n = 25
[8] = oral, CsA 20 mg/kg i.p. + RT2Gy, sorafenib 40 mg/kg 1 hr later
[9] = oral, CsA 20 mg/kg i.p. + RT2Gy, sorafenib 40 mg/kg 24 hr later
[10] = oral, CsA 20 mg/kg i.p. + RT9Gy, sorafenib 40 mg/kg 1 hr later
[11] = oral, CsA 20 mg/kg i.p. + RT9Gy, sorafenib 40 mg/kg 24 hr later
[12] = oral, CsA 20 mg/kg i.p. + sorafenib 40 mg/kg
[13] = po, RT2Gy, sorafenib 40 mg/kg 1 hr later
[14] = po, RT2Gy, sorafenib 40 mg/kg 24 hr later
[15] = po, RT9Gy, sorafenib 40 mg/kg 1 hr later
[16] = po, RT9Gy, sorafenib 40 mg/kg 24 hr later
[17] = po, sorafenib 40 mg/kg p.o. only (sham RT), rats

SMILES: CNC(=O)c1cc(Oc2ccc(NC(=O)Nc3ccc(Cl)c(C(F)(F)F)c3)cc2)ccn1 [sorafenib, Sorafenib]
- No response (recanalization) [1, 6]: 1/18 (5.6%)
- Partial recanalization [1, 6]: 12/18 (66.7%)
- Increase in complete recanalization, SBRT vs conventional RT ([1]; sorafenib + SBRT compared to sorafenib + conventional RT): 3 fold
- No response (recanalization) [1, 7]: 10/25 (40.0%)
- Partial recanalization [1, 7]: 13/25 (52.0%)
- Cmax [2, 8]: 1720 ± 960 ng/mL
- Tmax [2, 8]: 3.3 h
- Cmax [2, 9]: 7710 ± 3410 ng/mL
- Tmax [2, 9]: 3.75 h
- Cmax [2, 10]: 3740 ± 2170 ng/mL
- Tmax [2, 10]: 3.33 h
- Cmax [2, 11]: 5430 ± 3220 ng/mL
- Tmax [2, 11]: 3.92 h
- Cmax [2, 12]: 4690 ± 2310 ng/mL
- Tmax [2, 12]: 4 h
- Cmax [2, 13]: 10100 ± 5930 ng/mL
- Tmax [2, 13]: 2.92 h
- Cmax [2, 14]: 1890 ± 1080 ng/mL
- Tmax [2, 14]: 3.4 h
- AUC(0-t) ([2]; po, RT2Gy, sorafenib 40 mg/kg p.o. 1 hr later): 27800 ng·h/mL
- AUC(0-t) ([2]; po, RT2Gy, sorafenib 40 mg/kg p.o. 24 hr later): 4950 ng·h/mL
- Cmax [2, 15]: 12300 ± 6300 ng/mL
- Tmax [2, 15]: 3.25 h
- Cmax [2, 16]: 8690 ± 2730 ng/mL
- Tmax [2, 16]: 3.08 h
- AUC(0-t) ([2]; po, RT9Gy, sorafenib 40 mg/kg p.o. 1 hr later): 31500 ng·h/mL
- AUC(0-t) ([2]; po, RT9Gy, sorafenib 40 mg/kg p.o. 24 hr later): 24300 ng·h/mL
- AUC(0-t) ([2]; po, CsA 20 mg/kg i.p. + RT2Gy, sorafenib 40 mg/kg p.o. 1 hr later): 4630 ng·h/mL
- AUC(0-t) ([2]; po, CsA 20 mg/kg i.p. + RT2Gy, sorafenib 40 mg/kg p.o. 24 hr later): 18600 ng·h/mL
- AUC(0-t) ([2]; po, CsA 20 mg/kg i.p. + RT9Gy, sorafenib 40 mg/kg p.o. 1 hr later): 10100 ng·h/mL
- AUC(0-t) ([2]; po, CsA 20 mg/kg i.p. + RT9Gy, sorafenib 40 mg/kg p.o. 24 hr later): 12900 ng·h/mL
- AUC(0-t) ([2]; po, CsA 20 mg/kg i.p. + sorafenib 40 mg/kg p.o.): 13100 ng·h/mL
- AUC(0-t) [2, 17]: 12000 ng·h/mL
- Cmax [2, 17]: 4390 ± 2280 ng/mL
- Tmax [2, 17]: 3.75 h
- Increase in concentration of sorafenib ([2]; both concurrent and sequential RT9Gy regimens compared with sorafenib alone): more than 2 fold
- Organ distribution vs sham group ([3]; RT2Gy and RT9Gy under the sequential regimen): did not differ significantly
- Level of sorafenib in organs vs sham group ([3]; RT9Gy concurrent with sorafenib, all organs except the brain): significantly decreased
- concentration at 6 h ([3]; brain): 140 ± 150 ng/g
- concentration at 6 h ([3]; heart): 1200 ± 360 ng/g
- concentration at 6 h ([3]; kidney): 1930 ± 750 ng/g
- concentration at 6 h ([3]; liver): 4430 ± 1560 ng/g
- concentration at 6 h ([3]; lung): 3200 ± 1000 ng/g
- concentration at 6 h ([3]; spleen): 1420 ± 530 ng/g
- Reduction of AUC ([4]; average, concomitant administration of the CYP3A4 inducer rifampicin): 37%
- Orally administered dose recovered as unchanged drug ([4]; by biliary excretion or lack of absorption): Approximately 50%
- Permeability across the gastrointestinal (GI) epithelium [5]: high
- Complete or partial response rate (HCC; HCC patients, combination of sorafenib and RT): 55%
- Reduction of HCC tumor volume (HCC; case report, sorafenib + RT combination regimen): 39%
- Binding to P-gp (efflux transporter P-gp): moderate affinity
- P-gp substrate affinity (efflux transporter P-gp): moderate-affinity
